17 molecules from patent US7390910B2, “Compounds for treating tumors” (priority 2003, dated 2008) can be followed below.

The test system of assay [1] is bovine microtubule-associated protein (MAP)-rich tubulin. The class given is biochemical. The method in brief: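 This in vitro polymerization assay used bovine tubulin rich in microtubule-associated proteins, prepared at 1.5 mg/ml in GPEM (PEM buffer containing 1 mM GTP) and cleared by a 12,000×g spin. Tubulin solution (100 μl/well) was dispensed onto duplicate 10 μl test samples. Control wells held 0.3% DMSO. A SpectraMax Plus reader recorded turbidity at 340 nm every minute over 60 min at 24° C.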

For the next assay, the system named is KB cells. Put plainly: cells. It is filed as cell-based. To be noted: for pIC50: 3 days, SRB. As to the method: (§1) Cell Survival Assay: Standard Pharmacological Test Procedure. […] Compounds are incubated with cells for 3 days.
In a further assay the test system is KB85. Put plainly: cells. It is filed as cell-based. The following applies: for pIC50: 3 days, SRB. The protocol: as §1
A further assay deals with KBV1. Description: cells. The class given is cell-based. To be noted: for pIC50: 3 days, SRB; for inhibition at 3 µM: KB-V1, 3000 nM. The protocol:
as §1

What is called pIC50 is the IC50 on a negative log10 scale, so that one unit is a factor of ten. A lower pIC50 goes with a large IC50. One may read the inhibition as the relative decrease from the control value, in per cent. High values mean strong suppression, low ones little suppression.

pIC50: −log10 of the molar value. Marks after values point to notes of the source that are not given here. *1 amine or outer side, *2 acyl side, *3 side chain or, on linkers, in order; H or OH if unused. Where a SMILES comes first, the peptide text is derived from it. [ ]: non-standard residue; d: D form. The star is where a group is joined. NMePhe(3-Me,β,β-Me2) = CN[C@H](C(=O)O)C(C)(C)c1cccc(C)c1; X1 = C/C(=C\[C@H](C(C)C)N(C)[*:1])C(=O)[*:2]; Tle = CC(C)(C)[C@H](N)C(=O)O; NHBn = c1ccc(CN*)cc1 Some results are limits rather than exact numbers.

`CN[C@H](C(=O)N[C@H](C(=O)N(C)[C@H](/C=C(\C)C(=O)N1CCC[C@@H]1C(=O)OC)C(C)C)C(C)(C)C)C(C)(C)c1ccccc1` [Example 41, N,β,β-trimethyl-L-phenylalanyl-N^1-{(1S,2E)-4-[(2R)-2-(methoxycarbonyl)pyrrolidin-1-yl]-1-isopropyl-3-methyl-4-oxobut-2-enyl}-N^1,3-dimethyl-L-valinamide]: the “Tubulin Polym. % inhibition at 0.3 uM” value in assay [1] is 96%. For the same molecule, the pIC50 with KB cells (Homo sapiens, KB, 72 h) was 7.80; with KB85 (72 h) it was 7.29; in the assay on KBV1 (Homo sapiens, KB-V1, 72 h), 5.96.

`CN[C@@H](C(=O)N[C@H](C(=O)N(C)[C@H](/C=C(\C)C(=O)N1CCN(Cc2ccccc2)CC1)C(C)C)C(C)(C)C)C(C)(C)c1ccc(C)c(C)c1` [Example 13, N,β,β,3,4-Pentamethyl-D-phenylalanyl-N^1-[(1S,2E)-4-(4-benzylpiperazin-1-yl)-1-isopropyl-3-methyl-4-oxobut-2-enyl]-N^1,3-dimethyl-L-valinamide]: the “Tubulin Polym. % inhibition at 0.3 uM” value in assay [1] was 11%. The pIC50 is 6.76 with KB cells (Homo sapiens, KB, 72 h); 6.45 in the assay with KB85 (72 h); 5.75 in the assay with KBV1 (Homo sapiens, KB-V1, 72 h).

For `CN[C@H](C(=O)N[C@H](C(=O)N(C)[C@H](/C=C(\C)C(=O)N1CCN(CCCN(C)C)CC1)C(C)C)C(C)(C)C)C(C)(C)c1ccccc1` [Example 38, N,β,β-trimethyl-L-phenylalanyl-N^1-((1S,2E)-4-{4-[3-(dimethylamino)propyl]piperazin-1-yl}-1-isopropyl-3-methyl-4-oxobut-2-enyl)-N^1,3-dimethyl-L-valinamide], the “Tubulin Polym. % inhibition at 0.3 uM” value in assay [1] was found to be 75%. The pIC50 in the assay with KB cells (Homo sapiens, KB, 72 h) is 7.70; in the assay on KB85 (72 h), 6.28. In the assay on KBV1 (Homo sapiens), the inhibition at 3 µM came out at 0%.

In the case of `CN[C@H](C(=O)N[C@H](C(=O)N(C)[C@H](/C=C(\C)S(=O)(=O)O)C(C)C)C(C)(C)C)C(C)(C)c1ccccc1` [Example 66, N,β,β-trimethyl-L-phenylalanyl-N^1-[(1S,2E)-1-isopropyl-3-sulfobut-2-enyl] N^1,3-dimethyl-L-valinamide], in assay [1], the “Tubulin Polym. % inhibition at 0.3 uM” value is 91%. The “KB % inhibition @ 3000 nM” value in the assay on KB cells (3000 nM) came out at 25%. Also, the “KB85 % inhibition @ 3000 nM” value in the assay with KB85 (3000 nM) is listed as 0%. Moreover, in the assay with KBV1, the “KBV1 % inhibition @ 3000 nM” value was 0%.

Turning to `CN[C@H](C(=O)N[C@H](C(=O)N(C)[C@H](/C=C(\C)C(=O)N1CCC[C@H]1C(=O)N1CCC[C@H]1C(=O)NCc1ccccc1)C(C)C)C(C)(C)C)C(C)(C)c1ccc(C)c(C)c1` [Example 10, 1-{(2E,4S)-2,5-Dimethyl-4-[methyl(N,β,β,3,4-pentamethyl-L-phenylalanyl-3-methyl-L-valyl)amino]hex-2-enoyl}-L-prolyl-N-benzyl-L-prolinamide], in assay [1], the “Tubulin Polym. % inhibition at 0.3 uM” value worked out at 42%. Moreover, the pIC50 in the assay on KB cells (Homo sapiens, KB, 72 h) was 8.82; with KB85 (72 h), 7.71; in the assay on KBV1 (Homo sapiens, KB-V1, 72 h), 5.67.

Turning to `CN[C@H](C(=O)N[C@H](C(=O)N(C)[C@H](/C=C(\C)P(=O)(O)O)C(C)C)C(C)(C)C)C(C)(C)c1ccccc1` [Example 72, N,β,β-trimethyl-L-phenylalanyl-N^1-[(1S,2E)-1-isopropyl-3-phosphonobut-2-enyl]-N^1,3-dimethyl-L-valinamide], the “Tubulin Polym. % inhibition at 0.3 uM” value in assay [1] is given as 53%. In addition, the inhibition at 3 µM in the assay with KB cells (Homo sapiens, 72 h, 3000 nM) was 0%; in the assay with KB85 (3000 nM), 0%; in the assay on KBV1 (Homo sapiens), 4%.

Turning to `CCOS(=O)(=O)/C=C/[C@H](C(C)C)N(C)C(=O)[C@@H](NC(=O)[C@@H](NC)C(C)(C)c1ccccc1)C(C)(C)C` [Example 63, N,β,β-trimethyl-L-phenylalanyl-N^1-[(1S,2E)-3-(ethoxysulfonyl)-1-isopropylprop-2-enyl]-N^1,3-dimethyl-L-valinamide], the “Tubulin Polym. % inhibition at 0.3 uM” value in assay [1] came out at 42%. Moreover, the inhibition at 3 µM in the assay on KB cells (Homo sapiens, 72 h, 3000 nM) came to 1%; in the assay with KB85 (3000 nM), 0%; in the assay with KBV1 (Homo sapiens), 0%.

For the molecule `CNC(C(=O)NC(C(=O)N(C)C(C=C(C)C(=O)CO)C(C)C)C(C)(C)C)C(C)(C)c1ccccc1` (centres unmarked) [Example 90, N-{1-[(5-Hydroxy-1-isopropyl-3-methyl-4-oxo-pent-2-enyl)-methyl-carbamoyl]-2,2-dimethyl-propyl}-3-methyl-2-methylamino-3-phenyl-butyramide], the “Tubulin Polym. % inhibition at 0.5 uM” value in assay [1] was 76*** %. For the same molecule, the negative-log IC50 (pIC50) with KB cells (Homo sapiens, KB, 72 h) was 7.37; in the assay on KB85 (72 h) it was 7.17; in the assay on KBV1 (Homo sapiens, KB-V1, 72 h), 5.95.

In the case of `CN[C@H](C(=O)N[C@H](C(=O)N(C)[C@H](/C=C(\C)C(=O)N1CCN(Cc2ccccc2)CC1)C(C)C)C(C)(C)C)C(C)(C)c1cccc(Cl)c1` [Example 16, 3-Chloro-N,β,β-trimethyl-L-phenylalanyl-N^1-[(1S,2E)-4-(4-benzylpiperazin-1-yl)-1-isopropyl-3-methyl-4-oxobut-2-enyl]-N^1,3-dimethyl-L-valinamide], the “Tubulin Polym. % inhibition at 0.3 uM” value in assay [1] is reported as 62%. In addition, the pIC50 in the assay with KB cells (Homo sapiens, KB, 72 h) was 7.41; in the assay with KB85 (72 h), 7.22; in the assay on KBV1 (Homo sapiens, KB-V1, 72 h) it was 6.10.

For `CN[C@H](C(=O)N[C@H](C(=O)N(C)[C@H](/C=C(\C)C(=O)N1CCOCC1)C(C)C)C(C)(C)C)C(C)(C)c1ccc(C)c(C)c1` [Example 2, N,β,β,3,4-Pentamethyl-L-phenylalanyl-N^1-[(1S,2E)-1-isopropyl-3-methyl-4-morpholin-4-yl-4-oxobut-2-enyl]-N^1,3-dimethyl-L-valinamide], the “Tubulin Polym. % inhibition at 0.3 uM” value in assay [1] is on record as 37%. The pIC50 was 7.47 in the assay with KB cells (Homo sapiens, KB, 72 h); 7.21 with KB85 (72 h); 6.79 with KBV1 (Homo sapiens, KB-V1, 72 h).

Turning to `CN[C@H](C(=O)N[C@H](C(=O)N(C)[C@H](/C=C(\C)C(=O)N1CCC[C@@H]1C(=O)N1CCC[C@@H]1C(=O)NCc1ccccc1)C(C)C)C(C)(C)C)C(C)(C)c1cccc(C)c1.O=C(O)C(F)(F)F` [Example 9, 1-{(2E,4S)-2,5-Dimethyl-4-[methyl(N,β,β,3-tetramethyl-L-phenylalanyl-3-methyl-L-valyl)amino]hex-2-enoyl}-D-prolyl-N-benzyl-D-prolinamide trifluoroacetic acid salt] (H-[NMePhe(3-Me,β,β-Me2)][Tle][X1][dP][dP]-NHBn), in assay [1], the “Tubulin Polym. % inhibition at 0.3 uM” value is 56%. In addition, the negative-log IC50 (pIC50) in the assay on KB cells (Homo sapiens, KB, 72 h) is 8.85; in the assay on KB85 (72 h), 7.64. The molecule further showed an inhibition at 3 µM in the assay on KBV1 (Homo sapiens) of 21%.

As to `CN[C@H](C(=O)N[C@H](C(=O)N(C)[C@H](/C=C(\C)C(=O)NCc1ccc(-c2ccccc2)cc1)C(C)C)C(C)(C)C)C(C)(C)c1ccccc1` [Example 53, N,β,β-trimethyl-L-phenylalanyl-N-1-{(1S,2E)-4-[(1,1′-biphenyl-4-ylmethyl)amino]-1-isopropyl-3-methyl-4-oxobut-2-enyl}-N^1,3-dimethyl-L-valinamide], the “Tubulin Polym. % inhibition at 0.3 uM” value in assay [1] came to 11%. Moreover, the negative logarithm of the IC50 (pIC50) is 6.18 in the assay with KB cells and 5.78 in the assay with KB85. Further, in the assay on KBV1, the “KBV1 % inhibition @ 3000 nM” value was 29%.

On to “3-hydroxy-N-methyl-L-valyl-N^1-[(1S,2E)-4-ethoxy-1-isopropyl-3-methyl-4-oxo-2-butenyl]-N^1,3-dimethyl-L-valinamide and 3-hydroxy-N,N-dimethyl-L-valyl-N^1-[(1S,2E)-4-ethoxy-1-isopropyl-3-methyl-4-oxo-2-butenyl]-N^1,3-dimethyl-L-valinamide [Example 61]”, for which, in assay [1], the “Tubulin Polym. % inhibition at 0.5 uM” value is on record as 40*** %. Besides, the values for the pIC50 in the assay with KB cells, in the assay on KB85 and in the assay on KBV1 were 6.82, 6.53 and less than 5.52, respectively.

Consider `CN[C@H](C(=O)N[C@H](C(=O)N(C)[C@H](/C=C/P(=O)(O)OC)C(C)C)C(C)(C)C)C(C)(C)c1ccccc1` [Example 69, N,β,β-trimethyl-L-phenylalanyl-N^1-{(1S,2E)-3-[hydroxy(methoxy)phosphoryl]-1-isopropylprop-2-enyl}-N^1,3-dimethyl-L-valinamide], for which the “Tubulin Polym. % inhibition at 0.3 uM” value in assay [1] stood at 59%. Besides, the inhibition at 3 µM with KB cells (Homo sapiens, 72 h, 3000 nM) was 0%; in the assay on KB85 (3000 nM), 0%; with KBV1 (Homo sapiens), 3%.

For the molecule `CN[C@H](C(=O)N[C@H](C(=O)N(C)[C@H](/C=C(\C)C(=O)N1CCC[C@H]1C(=O)OC)C(C)C)C(C)(C)C)C(C)(C)c1ccc(C)c(C)c1` [Example 17, N,β,β,3,4-Pentamethyl-L-phenylalanyl-N^1-{(1S,2E)-4-[(2S)-2-(methoxycarbonyl)pyrrolidin-1-yl]-1-isopropyl-3-methyl-4-oxobut-2-enyl}-N^1,3-dimethyl-L-valinamide], in assay [1], the “Tubulin Polym. % inhibition at 0.3 uM” value is 71%. The pIC50 in the assay with KB cells (Homo sapiens, KB, 72 h) is 8.72; with KB85 (72 h), 7.82; in the assay on KBV1 (Homo sapiens, KB-V1, 72 h), 6.44.

Consider `CN[C@H](C(=O)N[C@H](C(=O)N(C)[C@H](/C=C(\C)C(=O)N1CCC[C@H]1C(=O)O)C(C)C)C(C)(C)C)C(C)(C)C1CCCCC1` [Example 46, 3-cyclohexyl-N-methyl-L-valyl-N^1-{(1S,2E)-4-[(2S)-2-carboxypyrrolidin-1-yl]-1-isopropyl-3-methyl-4-oxobut-2-enyl}-N^1,3-dimethyl-L-valinamide], for which the “Tubulin Polym. % inhibition at 0.3 uM” value in assay [1] is on record as 99%. Further, the negative-log IC50 (pIC50) with KB cells (Homo sapiens, KB, 72 h) is 6.35; with KB85 (72 h), 5.76. Besides, testing at 3 µM in the assay on KBV1 (Homo sapiens) gave an inhibition of 1%.

Take `CN[C@H](C(=O)N[C@H](C(=O)N(C)[C@H](/C=C(\C)C(=O)N1CC=C[C@H]1C(=O)O)C(C)C)C(C)(C)C)C(C)(C)c1ccccc1` [Example 48, N,β,β-trimethyl-L-phenylalanyl-N^1-{(1S,2E)-4-[(2S)-2-carboxy-2,5-dihydro-1H-pyrrol-1-yl]-1-isopropyl-3-methyl-4-oxobut-2-enyl}-N^1,3-dimethyl-L-valinamide]: the “Tubulin Polym. % inhibition at 0.3 uM” value in assay [1] is recorded as 91(2) %. Also, the pIC50 in the assay on KB cells (Homo sapiens, KB, 72 h) was 7.24; in the assay on KB85 (72 h), 6.74. Further, in the assay with KBV1 (Homo sapiens), the inhibition at 3 µM was 15%.
